From ChEMBL document CHEMBL1153914, “Synthesis, binding affinity and SAR of new benzolactam derivatives as dopamine D3 receptor ligands” (Bioorg Med Chem Lett, 2009)

Assays:
D(1A) dopamine receptor [1] = target: T1, D(1A) dopamine receptor (Homo sapiens, UniProt P21728); test: Displacement of [3H]SCH23390 from human dopamine D1 receptor at 10 uM
D(3) dopamine receptor = D(3) dopamine receptor (Homo sapiens, UniProt P35462); test: Displacement of [3H]spiperone from human dopamine D3 receptor
D(2) dopamine receptor [2] = target: T2, D(2) dopamine receptor (Homo sapiens, UniProt P14416); test: Displacement of [3H]spiperone from human dopamine D2 receptor at 10 uM
T2 sequence (P14416 whole entry): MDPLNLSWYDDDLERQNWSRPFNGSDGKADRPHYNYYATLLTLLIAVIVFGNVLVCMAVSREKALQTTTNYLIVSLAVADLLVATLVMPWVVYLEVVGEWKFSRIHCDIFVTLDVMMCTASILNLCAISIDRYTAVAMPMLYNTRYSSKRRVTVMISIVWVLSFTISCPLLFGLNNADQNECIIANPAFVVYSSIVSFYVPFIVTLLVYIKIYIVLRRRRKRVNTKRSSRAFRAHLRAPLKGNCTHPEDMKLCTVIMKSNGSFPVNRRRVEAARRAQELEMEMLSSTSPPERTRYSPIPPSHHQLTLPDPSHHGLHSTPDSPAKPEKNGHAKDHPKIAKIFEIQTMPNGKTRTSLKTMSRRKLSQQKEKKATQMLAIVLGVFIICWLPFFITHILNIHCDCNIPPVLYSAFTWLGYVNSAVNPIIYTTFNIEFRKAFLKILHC

D(1A) dopamine receptor [3] = target: T1, D(1A) dopamine receptor; test: Displacement of [3H]SCH23390 from human dopamine D1 receptor
Homo sapiens = organism: Homo sapiens; test: Selectivity ratio of Ki for human dopamine D2 receptor to Ki for human dopamine D3 receptor
D(2) dopamine receptor [4] = target: T2, D(2) dopamine receptor; test: Displacement of [3H]spiperone from human dopamine D2 receptor
[5] = target: 5-hydroxytryptamine receptor 2A (Homo sapiens, UniProt P28223); test: Displacement of [3H]ketanserin from 5HT2A receptor
Sequence of 5-hydroxytryptamine receptor 2A (P28223 whole entry): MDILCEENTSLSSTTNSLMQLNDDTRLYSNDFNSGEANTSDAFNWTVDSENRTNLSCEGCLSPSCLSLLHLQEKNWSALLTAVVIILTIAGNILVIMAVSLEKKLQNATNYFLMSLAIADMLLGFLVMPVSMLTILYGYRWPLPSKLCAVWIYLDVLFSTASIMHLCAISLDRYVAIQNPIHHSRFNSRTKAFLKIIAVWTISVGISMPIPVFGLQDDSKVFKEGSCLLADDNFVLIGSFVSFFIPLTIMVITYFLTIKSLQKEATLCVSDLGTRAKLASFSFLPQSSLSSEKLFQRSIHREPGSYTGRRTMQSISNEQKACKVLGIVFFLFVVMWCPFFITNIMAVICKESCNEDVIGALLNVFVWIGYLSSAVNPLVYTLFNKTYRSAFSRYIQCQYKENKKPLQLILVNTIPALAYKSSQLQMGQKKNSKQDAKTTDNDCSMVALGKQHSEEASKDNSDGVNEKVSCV

[6] = Selectivity for dopamine D3 receptor over dopamine D2 receptor

T1 sequence (P21728 whole entry): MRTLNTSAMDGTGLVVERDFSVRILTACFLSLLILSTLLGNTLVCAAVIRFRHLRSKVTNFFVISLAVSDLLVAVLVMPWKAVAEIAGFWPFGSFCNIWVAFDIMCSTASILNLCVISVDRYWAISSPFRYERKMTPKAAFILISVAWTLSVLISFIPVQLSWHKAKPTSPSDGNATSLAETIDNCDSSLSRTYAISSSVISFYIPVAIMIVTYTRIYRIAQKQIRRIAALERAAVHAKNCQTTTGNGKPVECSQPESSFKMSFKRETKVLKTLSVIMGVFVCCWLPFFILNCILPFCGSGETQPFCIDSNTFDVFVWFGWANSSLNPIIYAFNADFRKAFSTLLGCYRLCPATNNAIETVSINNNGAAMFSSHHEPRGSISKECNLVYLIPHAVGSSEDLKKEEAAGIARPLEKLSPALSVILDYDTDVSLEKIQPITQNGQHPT
Sequence of D(3) dopamine receptor (P35462 whole entry): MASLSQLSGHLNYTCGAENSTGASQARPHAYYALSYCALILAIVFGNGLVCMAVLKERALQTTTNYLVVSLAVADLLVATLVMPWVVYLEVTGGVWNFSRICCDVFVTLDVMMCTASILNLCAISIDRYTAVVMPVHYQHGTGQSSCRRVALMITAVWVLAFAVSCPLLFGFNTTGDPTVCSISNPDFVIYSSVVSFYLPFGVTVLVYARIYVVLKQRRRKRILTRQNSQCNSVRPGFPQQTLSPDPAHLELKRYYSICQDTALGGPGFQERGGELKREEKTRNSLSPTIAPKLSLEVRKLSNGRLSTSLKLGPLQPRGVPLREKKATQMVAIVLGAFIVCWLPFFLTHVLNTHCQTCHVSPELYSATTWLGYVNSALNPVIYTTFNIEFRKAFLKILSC

Structure (SMILES) | Activity (D(1A) dopamine receptor [1]) [%] | Ki (D(3) dopamine receptor; read-out: pKi (converted)) [nM] | Activity (D(2) dopamine receptor [2]) [%] | Ki (D(1A) dopamine receptor [3]) [nM] | Ki (D(2) dopamine receptor [4]) [nM] | other results
O=C1c2ccccc2CCCN1CCCN1CCN(c2ncccn2)CC1 | 46 | 8320 | 36.4 |  |  | 
COc1ccc(N2CCN(CCCCN3CCCc4ccccc4C3=O)CC2)cc1 | 47.5 |  | 59 |  |  | Ki (D(3) dopamine receptor; read-out: Ki): 40 nM
O=C1c2ccccc2CCN1CCCN1CCN(c2cccc(C(F)(F)F)c2)CC1 |  | 2400 | 52.4 | 1740 |  | 
COc1ccccc1N1CCN(CCCCN2CCCc3ccccc3C2=O)CC1 |  | 1.58 |  | 2690 | 3.63 | Ratio Ki (Homo sapiens): 2.2
O=C1c2ccccc2CCCN1CCCN1CCN(c2ccccn2)CC1 | 57 | 4170 | 26.3 |  |  | 
O=C1c2ccccc2CCN1CCCN1CCN(c2ccccn2)CC1 |  | 8320 | 12.4 | 1700 |  | 
O=C1c2ccccc2CCN1CCCCN1CCN(c2ccccn2)CC1 |  |  | 57.5 | 2040 |  | 
O=C1c2ccccc2CCCN1CCCCN1CCN(c2cccc(Cl)c2Cl)CC1 |  | 14.5 |  | 1740 | 36.3 | Ki [5]: 10 nM; Ratio Ki (Homo sapiens): 2.5
COc1ccc(N2CCN(CCCCN3CCc4ccccc4C3=O)CC2)cc1 | 34.2 | 490 | 33.2 |  |  | 
O=C1c2ccccc2CCCN1CCCN1CCN(c2cccc(Cl)c2Cl)CC1 |  | 389 |  | 2400 | 219 | 
COc1ccc(N2CCN(CCCN3CCCCc4ccccc4C3=O)CC2)cc1 | 58.9 | 8910 | 13.1 |  |  | 
O=C(NCCCCN1CCN(c2cccc(Cl)c2Cl)CC1)c1cc2ccccc2s1 |  |  |  |  |  | Selectivity ratio [6]: 7200
O=C1c2ccccc2CCN1CCCCN1CCN(c2cccc(Cl)c2Cl)CC1 |  | 162 |  | 1780 | 11.5 | 
O=C1c2ccccc2CCN1CCCN1CCN(c2cccc(Cl)c2Cl)CC1 |  | 209 | 59.9 | 1450 |  | 
COc1ccccc1N1CCN(CCCN2CCc3ccccc3C2=O)CC1 | 59.5 | 1580 | 50.4 |  |  | 
O=C1c2ccccc2CCCN1CCCCN1CCN(c2ccccn2)CC1 |  | 398 |  | 282 | 229 | 
O=C1c2ccccc2CCN1CCCCN1CCN(c2ccccc2Cl)CC1 |  | 6.76 |  | 347 | 35.5 | Ratio Ki (Homo sapiens): 5.2
COc1ccc(N2CCN(CCCN3CCc4ccccc4C3=O)CC2)cc1 | 43.5 | 10000 | 1.35 |  |  | 
O=C1c2ccccc2CCN1CCCN1CCN(c2ncccn2)CC1 | 40.8 | 24500 | 0.36 |  |  | 
COc1cccc(N2CCN(CCCCN3CCc4ccccc4C3=O)CC2)c1 |  | 40.7 |  | 427 | 158 | 
COc1ccccc1N1CCN(CCCN2CCCc3ccccc3C2=O)CC1 |  | 209 |  | 2510 | 794 | 
O=C1c2ccccc2CCN1CCCCN1CCN(c2ncccn2)CC1 | 31.6 | 1510 | 60.5 |  |  | 
O=C1c2ccccc2CCCN1CCCN1CCN(c2cccc(C(F)(F)F)c2)CC1 |  | 1050 | 55.5 | 4900 |  | 
COc1ccccc1N1CCN(CCCCN2CCc3ccccc3C2=O)CC1 | 61.1 |  |  |  | 12.3 | 
COc1ccc(N2CCN(CCCN3CCCc4ccccc4C3=O)CC2)cc1 | 42.8 | 1100 | 1.1 |  | > 100000 | 
COc1ccccc1N1CCN(CCCCCN2CCc3ccccc3C2=O)CC1 |  | 32.4 |  | 977 | 20.4 | 
O=C1c2ccccc2CCCN1CCCCN1CCN(c2ncccn2)CC1 |  | 631 |  | 8710 | 151 | 
